Reference: patent US6150385A, “1,3,4-thiadiazoles useful for the treatment of CMV infections” (Pharmacia & Upjohn Company, priority 1999, dated 2000)

Molecular target: T1, HCMV polymerase (Human cytomegalovirus, UniProt P08546)
T1 construct: made in house; host or cells: SF-9 insect cells infected with recombinant baculovirus
Assay: HCMV polymerase assay (scintillation proximity assay)
Format: biochemical
Conditions: percentage of inhibition at 25 μM concentration in CMV polymerase assay
Summary of the method: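 Baculovirus/SF-9-expressed HCMV polymerase in 5.4 mM HEPES pH 7.5, 11.7 mM KCl, 4.5 mM MgCl2, 0.36 mg/ml BSA, 90 nM 3H-dTTP, with or without 2 mM CHAPS. Started with 6 nM biotinylated poly(dA)-oligo(dT), 30 min at 25 or 37 °C, EDTA-stopped, read by streptavidin-SPA counting; % inhibition at 25 μM.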

T1 sequence (P08546 whole entry): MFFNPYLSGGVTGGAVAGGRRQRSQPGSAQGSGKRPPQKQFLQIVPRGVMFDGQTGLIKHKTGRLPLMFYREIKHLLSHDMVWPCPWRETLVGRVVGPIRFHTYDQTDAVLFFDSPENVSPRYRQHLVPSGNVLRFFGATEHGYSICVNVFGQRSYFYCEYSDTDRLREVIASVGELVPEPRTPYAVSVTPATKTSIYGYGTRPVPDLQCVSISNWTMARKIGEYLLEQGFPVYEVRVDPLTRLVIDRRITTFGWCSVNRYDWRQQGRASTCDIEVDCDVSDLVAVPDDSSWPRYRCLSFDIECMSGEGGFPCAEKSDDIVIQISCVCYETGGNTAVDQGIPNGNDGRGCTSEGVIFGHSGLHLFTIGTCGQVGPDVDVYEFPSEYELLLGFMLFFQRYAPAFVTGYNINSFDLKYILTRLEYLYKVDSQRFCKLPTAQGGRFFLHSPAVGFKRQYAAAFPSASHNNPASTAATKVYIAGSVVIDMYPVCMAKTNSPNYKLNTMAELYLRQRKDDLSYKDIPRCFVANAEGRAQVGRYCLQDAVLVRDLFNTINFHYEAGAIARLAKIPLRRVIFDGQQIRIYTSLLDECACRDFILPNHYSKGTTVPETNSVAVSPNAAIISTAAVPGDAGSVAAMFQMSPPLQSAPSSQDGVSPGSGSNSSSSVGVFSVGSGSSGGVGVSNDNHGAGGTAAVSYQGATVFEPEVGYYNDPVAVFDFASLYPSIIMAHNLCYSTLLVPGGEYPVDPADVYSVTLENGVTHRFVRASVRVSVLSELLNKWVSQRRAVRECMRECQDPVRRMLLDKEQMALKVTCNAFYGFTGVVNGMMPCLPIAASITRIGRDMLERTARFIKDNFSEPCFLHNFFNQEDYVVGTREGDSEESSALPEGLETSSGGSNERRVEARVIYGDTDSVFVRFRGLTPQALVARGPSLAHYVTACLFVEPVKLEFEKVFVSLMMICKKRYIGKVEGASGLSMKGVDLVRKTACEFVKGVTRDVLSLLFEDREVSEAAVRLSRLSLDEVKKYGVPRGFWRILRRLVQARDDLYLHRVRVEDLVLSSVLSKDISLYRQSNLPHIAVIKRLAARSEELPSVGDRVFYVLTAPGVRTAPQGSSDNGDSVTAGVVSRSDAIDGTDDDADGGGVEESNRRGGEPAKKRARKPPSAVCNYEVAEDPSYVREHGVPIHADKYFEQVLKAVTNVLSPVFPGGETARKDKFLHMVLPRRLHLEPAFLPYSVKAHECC

| Structure (SMILES) | inhibition at 25 µM [%] | % Inhib [%] |
| --- | --- | --- |
| O=C(/C=C/c1ccccc1)Nc1nnc(NCCc2cccs2)s1 [compound 77, (E)-3-phenyl-N-(5-{[2-(2-thienyl)ethyl]amino}-1,3,4-thiadiazol-2-yl)-2-propenamide] | 68.3 |  |
| CCOc1ccc2ccccc2c1C(=O)Nc1nnc(NCc2cccs2)s1 [compound 78, 2-ethoxy-N-{5-[(2-thienylmethyl)amino]-1,3,4-thiadiazol-2-yl}-1-naphthamide] | 68.2 |  |
| CCCCCCCC/C=C/CCCCCCCC(=O)Nc1nnc(NCCC(=O)OC(C)(C)C)s1 [compound 79, tert-butyl-3-({5-[(E)-9-octadecenoylamino]-1,3,4-thiadiazol-2-yl}amino)propanoate] | 68 |  |
| CCCCCCCCCCCNc1nnc(NC(=O)c2cccc([N+](=O)[O-])c2)s1 [compound 80, 3-nitro-N-[5-(undecylamino)-1,3,4-thiadiazol-2-yl]benzamide] | 67.9 |  |
| O=C(/C=C/c1ccccc1)Nc1nnc(NCCCCc2ccccc2)s1 [compound 81, (E)-3-phenyl-N-{5-[(4-phenylbutyl)amino]-1,3,4-thiadiazol-2-yl}-2-propenamide] | 67.9 |  |
| N#Cc1ccc(C(=O)Nc2nnc(NCCc3c[nH]c4ccccc34)s2)cc1 [compound 82, 4-cyano-N-(5-{[2-(1H-indol-3-yl)ethyl]amino}-1,3,4-thiadiazol-2-yl)benzamide] | 67.7 |  |
| N#Cc1ccc(C(=O)Nc2nnc(NCC(c3ccccc3)c3ccccc3)s2)cc1 [compound 83, 4-cyano-N-{5-[(2,2-diphenylethyl)amino]-1,3,4-thiadiazol-2-yl}benzamide] | 67.7 |  |
| O=C(Nc1nnc(NCc2ccncc2)s1)c1c(Cl)cccc1Cl [compound 84, 2,6-dichloro-N-{5-[(4-pyridinylmethyl)amino]-1,3,4-thiadiazol-2-yl}benzamide] | 67.6 |  |
| O=C(Nc1nnc(NC2CCN(Cc3ccccc3)CC2)s1)c1ccc2c(c1)C(=O)OC2=O [compound 85, N-{5-[(1-benzyl-4-piperidinyl)amino]-1,3,4-thiadiazol-2-yl}-1,3-dioxo-1,3-dihydro-2-benzofuran-5-carboxamide] | 67.3 |  |
| O=C(Nc1nnc(NCCc2c[nH]c3ccccc23)s1)c1ccc(S(=O)(=O)F)cc1 [compound 90, 4-{[(5-{[2-(1H-indol-3-yl)ethyl]amino}-1,3,4-thiadiazol-2-yl)amino]carbonyl}benzenesulfonyl fluoride] |  | 66.1 |

More lines, main results first:

| inhibition at 25 µM [%] | Structure (SMILES) | % Inhib [%] |
| --- | --- | --- |
| 67 | CCOC(=O)N1CCC(Nc2nnc(NC(=O)c3c(OCC)ccc4ccccc34)s2)CC1 [compound 86, ethyl 4-[(5-{[(2-ethoxy-1-naphthyl)carbonyl]amino}-1,3,4-thiadiazol-2-yl)amino]tetrahydro-1(2H)-pyridinecarboxylate] |  |
| 67 | CC(C)c1cc(C(C)C)c(C(=O)Nc2nnc(NCCCn3ccnc3)s2)c(C(C)C)c1 [compound 87, N-(5-{[3-(1H-imidazol-1-yl)propyl]amino}-1,3,4-thiadiazol-2-yl)-2,4,6-triisopropylbenzamide] |  |
| 66.5 | NS(=O)(=O)c1ccc(CNc2nnc(NC(=O)/C=C/c3ccccc3Cl)s2)cc1 [compound 88, (E)-N-(5-{[4-(aminosulfonyl)benzyl]amino}-1,3,4-thiadiazol-2-yl)-3-(2-chlorophenyl)-2-propenamide] |  |
| 66.3 | CCOc1ccc2ccccc2c1C(=O)Nc1nnc(NCCc2c[nH]cn2)s1 [compound 89, 2-ethoxy-N-(5-{[2-(1H-imidazol-4-yl)ethyl]amino}-1,3,4-thiadiazol-2-yl)-1-naphthamide] |  |
| 66.1 | CCCCCCCC/C=C/CCCCCCCC(=O)Nc1nnc(NC2CCN(C(=O)OCC)CC2)s1 [compound 91, ethyl 4-({5-[(E)-9-octadecenoylamino]-1,3,4-thiadiazol-2-yl}amino)tetrahydro-1(2H)-pyridinecarboxylate] |  |
| 66.1 | O=C(Nc1nnc(NCCc2cccs2)s1)c1c(Cl)cccc1Cl [compound 92, 2,6-dichloro-N-(5-{[2-(2-thienyl)ethyl]amino}-1,3,4-thiadiazol-2-yl)benzamide] |  |
